Assay results as given in patent publication US20240199546A1, “INHIBITORS OF SOLUTE CARRIER FAMILY 6A MEMBER 19 (SLC6A19) AND METHODS OF USE THEREOF” (Maze Therapeutics, Inc., priority 2022, published 2024).
Where two headings read alike, the source gives them in different places.

Molecular target: T1, human SLC6A19 and TMEM27 (Homo sapiens, UniProt Q695T7)
T1 construct: expressed in transfected cells
T1 sequence (Q695T7 1-634): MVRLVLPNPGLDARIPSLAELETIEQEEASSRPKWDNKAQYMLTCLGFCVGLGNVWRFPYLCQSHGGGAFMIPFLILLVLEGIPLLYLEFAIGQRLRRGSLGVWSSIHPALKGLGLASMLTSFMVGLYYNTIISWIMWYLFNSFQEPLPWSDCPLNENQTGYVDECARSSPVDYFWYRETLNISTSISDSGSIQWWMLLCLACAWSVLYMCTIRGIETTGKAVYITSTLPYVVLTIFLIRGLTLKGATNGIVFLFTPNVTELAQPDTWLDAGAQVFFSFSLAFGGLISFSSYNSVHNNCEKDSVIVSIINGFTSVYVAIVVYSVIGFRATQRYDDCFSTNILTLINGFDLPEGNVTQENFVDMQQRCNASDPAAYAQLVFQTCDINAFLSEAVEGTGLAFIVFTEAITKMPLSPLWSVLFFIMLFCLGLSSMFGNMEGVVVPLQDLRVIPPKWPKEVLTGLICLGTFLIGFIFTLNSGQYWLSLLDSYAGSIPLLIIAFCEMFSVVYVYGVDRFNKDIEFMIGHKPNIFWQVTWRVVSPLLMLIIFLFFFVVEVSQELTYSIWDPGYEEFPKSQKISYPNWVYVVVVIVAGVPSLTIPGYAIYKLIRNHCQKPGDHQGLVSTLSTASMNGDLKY
T1 sequence (Q9HBJ8 15-222 partner): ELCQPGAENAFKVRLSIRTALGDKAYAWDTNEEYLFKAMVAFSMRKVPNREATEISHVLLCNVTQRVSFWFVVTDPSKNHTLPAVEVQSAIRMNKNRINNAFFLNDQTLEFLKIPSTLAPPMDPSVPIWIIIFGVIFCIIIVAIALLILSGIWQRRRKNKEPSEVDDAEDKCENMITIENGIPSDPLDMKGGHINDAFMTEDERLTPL
Assay: Radiolabelled (3H) leucine uptake in CHO cells with doxycycline-inducible expression of human SLC6A19 and TMEM27 (Example B-1)
Assay type: cell-based
Outline: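 CHO cells were induced with doxycycline for 18 h at 37 °C, washed in HBSS, then exposed to compounds for 1 h: 8-point, 3-fold dilutions in duplicate, 0.5% DMSO final. Uptake measured by scintillation counting after 2 h shaking. Activity normalized with positive control as 0% and DMSO as 100%.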

[1] = CHO cells with doxycycline-inducible expression of human SLC6A19 and TMEM27, read-out: SLC6A19_Radioligand Uptake Assay IC50

Row | SMILES | IC50 [1] [nM] | IC50 (SLC6A19_Radioligand Uptake Assay IC50, CHO cells with doxycycline-inducible expression of human SLC6A19 and TMEM27) [nM]
1 | CNCC(=O)NCc1cc2cc(Cl)c(OCc3cscn3)cc2[nH]1 [Compound 614, N-((5-chloro-6-(thiazol-4-ylmethoxy)-1H-indol-2-yl)methyl)-2-(methylamino)acetamide] | 3260 | 
2 | CNCC(=O)NCc1cc2cc(Cl)c(OCc3cc(C)no3)cc2[nH]1 [Compound 615, N-((5-chloro-6-((3-methylisoxazol-5-yl)methoxy)-1H-indol-2-yl)methyl)-2-(methylamino)acetamide] | 2070 | 
3 | Cc1cc(COc2cc3[nH]c(CNC(=O)[C@H]4CCN4)cc3cc2Cl)on1 [Compound 616, (R)-N-((5-chloro-6-((3-methylisoxazol-5-yl)methoxy)-1H-indol-2-yl)methyl)azetidine-2-carboxamide] | 2730 | 
4 | O=C(NCCO)NCc1cc2cc(Cl)c(OCc3cscn3)cc2[nH]1 [Compound 619, 1-((5-chloro-6-(thiazol-4-ylmethoxy)-1H-indol-2-yl)methyl)-3-(2-hydroxyethyl)urea] | > 8440 | 
5 | CCOC(=O)NCc1cc2cc(Cl)c(OCc3cscn3)cc2[nH]1 [Compound 620, ethyl ((5-chloro-6-(thiazol-4-ylmethoxy)-1H-indol-2-yl)methyl)carbamate] | 182 | 
6 | COC(=O)NCc1cc2cc(F)c(OCc3cscn3)cc2[nH]1 [Compound 622, methyl ((5-fluoro-6-(thiazol-4-ylmethoxy)-1H-indol-2-yl)methyl)carbamate] | 84.8 | 
7 | COC(=O)NCc1cc2cc(Cl)c(OCc3cc(C)no3)cc2[nH]1 [Compound 625, methyl ((5-chloro-6-((3-methylisoxazol-5-yl)methoxy)-1H-indol-2-yl)methyl)carbamate] | 90.2 | 
8 | CC1(C(=O)NCc2cc3cc(Cl)c(OCCC4CC4)cc3[nH]2)CC1 [Compound 635, N-((5-chloro-6-(2-cyclopropylethoxy)-1H-indol-2-yl)methyl)-1-methylcyclopropane-1-carboxamide] | 193 | 
9 | Cc1cc(COc2cc3[nH]c(CNC(N)=O)cc3cc2Cl)on1 [Compound 637, 1-((5-chloro-6-((3-methylisoxazol-5-yl)methoxy)-1H-indol-2-yl)methyl)urea] |  | 376
10 | CC1(C(=O)NCc2cc3cc(CCC#N)c(OCc4ccon4)cc3[nH]2)CC1 [Compound 642, N-((5-(2-cyanoethyl)-6-(isoxazol-3-ylmethoxy)-1H-indol-2-yl)methyl)-1-methylcyclopropane-1-carboxamide] | 2740 | 
11 | CC(=O)NCc1cc2cc(Cl)c(OCCOCC(F)F)cc2[nH]1 [Compound 650, N-((5-chloro-6-(2-(2,2-difluoroethoxy)ethoxy)-1H-indol-2-yl)methyl)acetamide] | 1010 | 
12 | O=C(NCc1cc2cc(C3CC3)c(OCc3cscn3)cc2[nH]1)N1CCC1 [Compound 651, N-((5-cyclopropyl-6-(thiazol-4-ylmethoxy)-1H-indol-2-yl)methyl)azetidine-1-carboxamide] | 340 | 
13 | O=C(NCc1cc2cc(C3CC3)c(OCc3ccon3)cc2[nH]1)N1CCC1 [Compound 653, N-((5-cyclopropyl-6-(isoxazol-3-ylmethoxy)-1H-indol-2-yl)methyl)azetidine-1-carboxamide] | 387 | 
14 | O=C(NCc1cc2cc(C3CC3)c(OCc3ccon3)cc2[nH]1)N1CCCC1 [Compound 654, N-((5-cyclopropyl-6-(isoxazol-3-ylmethoxy)-1H-indol-2-yl)methyl)pyrrolidine-1-carboxamide] | 537 | 

More lines, now with the values ahead:

Row | IC50 [1] [nM] | IC50 (SLC6A19_Radioligand Uptake Assay IC50, CHO cells with doxycycline-inducible expression of human SLC6A19 and TMEM27) [nM] | SMILES
15 | 152 |  | CC1(C(=O)NCc2cc3cc(F)c(COc4ccon4)cc3[nH]2)CC1 [Compound 612, N-((5-fluoro-6-((isoxazol-3-yloxy)methyl)-1H-indol-2-yl)methyl)-1-methylcyclopropane-1-carboxamide]
16 | 82.4 |  | CC1(C(=O)NCc2cc3cc(Cl)c(COc4ccon4)cc3[nH]2)CC1 [Compound 613, N-((5-chloro-6-((isoxazol-3-yloxy)methyl)-1H-indol-2-yl)methyl)-1-methylcyclopropane-1-carboxamide]
17 | 3520 |  | Cc1cc(COc2cc3[nH]c(CNC(=O)CN)cc3cc2Cl)on1 [Compound 617, 2-amino-N-((5-chloro-6-((3-methylisoxazol-5-yl)methoxy)-1H-indol-2-yl)methyl)acetamide]
18 | 7510 |  | Cc1cc(COc2cc3[nH]c(CNC(=O)[C@H]4CCCN4)cc3cc2Cl)on1 [Compound 618, (R)—N-((5-chloro-6-((3-methylisoxazol-5-yl)methoxy)-1H-indol-2-yl)methyl)pyrrolidine-2-carboxamide]
19 | 1770 |  | COC(=O)NCc1cc2cc(F)c(OCc3cc(C)no3)cc2[nH]1 [Compound 621, methyl ((5-fluoro-6-((3-methylisoxazol-5-yl)methoxy)-1H-indol-2-yl)methyl)carbamate]
20 | 532 |  | CC(C)OC(=O)NCc1cc2cc(Cl)c(OCc3cscn3)cc2[nH]1 [Compound 623, isopropyl ((5-chloro-6-(thiazol-4-ylmethoxy)-1H-indol-2-yl)methyl)carbamate]
21 | 765 |  | CN(Cc1cn[nH]c1)C(=O)NCc1cc2cc(Cl)c(OCc3cscn3)cc2[nH]1 [Compound 626, 1-((1H-pyrazol-4-yl)methyl)-3-((5-chloro-6-(thiazol-4-ylmethoxy)-1H-indol-2-yl)methyl)-1-methylurea]
22 | 1070 |  | CN(Cc1cn[nH]c1)C(=O)NCc1cc2cc(Cl)c(OCc3ccon3)cc2[nH]1 [Compound 629, 1-((1H-pyrazol-4-yl)methyl)-3-((5-chloro-6-(isoxazol-3-ylmethoxy)-1H-indol-2-yl)methyl)-1-methylurea]
23 | 181 |  | CC1(C(=O)NCc2cc3cc(Cl)c(OCC4CC4)cc3[nH]2)CC1 [Compound 633, N-((5-chloro-6-(cyclopropylmethoxy)-1H-indol-2-yl)methyl)-1-methylcyclopropane-1-carboxamide]
24 | 164 |  | Cc1cc(COc2cc3[nH]c(CNC(=O)NC4CC4)cc3cc2Cl)on1 [Compound 636, 1-((5-chloro-6-((3-methylisoxazol-5-yl)methoxy)-1H-indol-2-yl)methyl)-3-cyclopropylurea]
25 | 264 |  | Cc1cc(COc2cc3[nH]c(CNC(=O)NC(C)C)cc3cc2Cl)on1 [Compound 638, 1-((5-chloro-6-((3-methylisoxazol-5-yl)methoxy)-1H-indol-2-yl)methyl)-3-isopropylurea]
26 | 666 |  | CC1(C(=O)NCc2[nH]c3cc(OCc4cscn4)ccc3c2C(F)(F)F)CC1 [Compound 640, 1-methyl-N-((6-(thiazol-4-ylmethoxy)-3-(trifluoromethyl)-1H-indol-2-yl)methyl)cyclopropane-1-carboxamide]
27 | 2100 |  | CC1(C(=O)NCc2cc3cc(CCC#N)c(OCc4cscn4)cc3[nH]2)CC1 [Compound 641, N-((5-(2-cyanoethyl)-6-(thiazol-4-ylmethoxy)-1H-indol-2-yl)methyl)-1-methylcyclopropane-1-carboxamide]
28 | 631 |  | CC1(C(=O)NCc2cc3cc(CC#N)c(OCc4cscn4)cc3[nH]2)CC1 [Compound 643, N-((5-(cyanomethyl)-6-(thiazol-4-ylmethoxy)-1H-indol-2-yl)methyl)-1-methylcyclopropane-1-carboxamide]
29 | 583 |  | CC1(C(=O)NCc2cc3cc(CC#N)c(OCc4ccon4)cc3[nH]2)CC1 [Compound 644, N-((5-(cyanomethyl)-6-(isoxazol-3-ylmethoxy)-1H-indol-2-yl)methyl)-1-methylcyclopropane-1-carboxamide]
30 | 539 |  | CC1(C(=O)NCc2cc3cc(C(F)F)c(OCc4ccon4)cc3[nH]2)CC1 [Compound 646, N-((5-(difluoromethyl)-6-(isoxazol-3-ylmethoxy)-1H-indol-2-yl)methyl)-1-methylcyclopropane-1-carboxamide]
31 | 680 |  | Cc1cc(COc2cc3[nH]c(CNC(=O)C4(C)CC4)cc3cc2C(F)F)no1 [Compound 647, N-((5-(difluoromethyl)-6-((5-methylisoxazol-3-yl)methoxy)-1H-indol-2-yl)methyl)-1-methylcyclopropane-1-carboxamide]
32 | 365 |  | O=C(NCc1cc2cc(C3CC3)c(OCc3cscn3)cc2[nH]1)N1CCCC1 [Compound 652, N-((5-cyclopropyl-6-(thiazol-4-ylmethoxy)-1H-indol-2-yl)methyl)pyrrolidine-1-carboxamide]
33 | > 7300 |  | CC1(C(=O)NCc2cc3cc(C4(F)CC4)c(OCc4ccon4)cc3[nH]2)CC1 [Compound 655, N-((5-(1-fluorocyclopropyl)-6-(isoxazol-3-ylmethoxy)-1H-indol-2-yl)methyl)-1-methylcyclopropane-1-carboxamide]
